Measured values from paper PMC3663881 (Journal of biomolecular screening, 2013).

Key:
RhaR = RhaR (Escherichia coli, UniProt P09378); assay: EMSA, inhibition of DNA binding by purified protein
RhaS = RhaS (Escherichia coli, UniProt P09377, L201R); assay: as above
LacI = LacI (UniProt P03023 1-360); assay: EMSA
GB1b-RhaR = target: T1, GB1b-RhaR (UniProt P09378 1-282); assay: EMSA
T1 sequence: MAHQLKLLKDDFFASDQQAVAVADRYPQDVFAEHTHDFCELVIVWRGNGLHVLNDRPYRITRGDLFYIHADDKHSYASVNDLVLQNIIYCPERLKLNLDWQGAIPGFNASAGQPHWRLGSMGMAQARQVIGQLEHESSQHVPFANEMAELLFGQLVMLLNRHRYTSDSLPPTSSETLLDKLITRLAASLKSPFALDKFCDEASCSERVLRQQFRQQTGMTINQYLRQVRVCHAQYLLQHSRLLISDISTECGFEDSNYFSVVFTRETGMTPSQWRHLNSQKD

RhaS, sequence (P09377 whole entry L201R): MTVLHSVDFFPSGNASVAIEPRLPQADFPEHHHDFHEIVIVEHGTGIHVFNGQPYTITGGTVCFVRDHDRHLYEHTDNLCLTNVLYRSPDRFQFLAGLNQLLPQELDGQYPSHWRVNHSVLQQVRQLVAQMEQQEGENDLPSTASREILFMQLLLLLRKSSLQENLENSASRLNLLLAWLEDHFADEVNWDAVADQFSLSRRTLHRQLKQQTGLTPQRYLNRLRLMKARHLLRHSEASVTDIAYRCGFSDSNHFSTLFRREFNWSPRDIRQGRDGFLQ
LacI, sequence (P03023 whole entry): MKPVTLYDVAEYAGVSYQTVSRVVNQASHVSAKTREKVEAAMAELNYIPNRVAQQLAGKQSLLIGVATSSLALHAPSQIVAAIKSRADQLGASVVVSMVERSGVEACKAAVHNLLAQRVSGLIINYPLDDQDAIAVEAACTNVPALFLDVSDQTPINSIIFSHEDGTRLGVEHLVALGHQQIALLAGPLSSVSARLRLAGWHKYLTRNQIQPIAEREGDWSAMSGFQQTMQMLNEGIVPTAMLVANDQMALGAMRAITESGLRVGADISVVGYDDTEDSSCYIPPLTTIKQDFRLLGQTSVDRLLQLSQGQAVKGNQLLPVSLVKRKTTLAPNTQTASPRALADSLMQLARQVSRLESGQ

CCCCN1C=C(c2ccc3ccccc3n2)C(C[N+](=O)[O-])c2ccccc21 (stereo not shown) [OSSL_051168, 1-butyl-4-nitromethyl-3-quinolin-2-yl-4H-quinoline]
IC50 (RhaR): ~140 µM
IC50 (RhaS): ~70 µM

B1: lac O1 probe (IR O1-For/O1-Rev) (dsDNA)
DNA 1: TGTTGTGTGGAATTGTGAGCGGATAACAATTTCACACAGG
DNA 2: CCTGTGTGAAATTGTTATCCGCTCACAATTCCACACAACA
binding result (LacI): binds

B2: RhaR site probe (oligos 3056/3287) (dsDNA)
DNA 1: CGCTGTATCTTGAAAAATCGACGTTTTTTACGTGGTTTTCCGTCGAAAATTTAAGGTAAGAAC
DNA 2: GTTCTTACCTTAAATTTTCGACGGAAAACCACGTAAAAAACGTCGATTTTTCAAGATACAGCG
binding result (GB1b-RhaR): binds
